{
  "source": "patent US20140024700A1",
  "about": "“BLOOD-BORNE MIRNAS AS SURROGATE MARKERS OF DRUG EFFICACY FOR CARDIAC CONDITIONS” (miRagen Therapeutics, Inc., priority 2010, published 2014)",
  "key": {"plasma miRNAs [1]": {"tested_on": "plasma miRNAs", "test": "Real-time PCR of plasma miRNAs, 4% NaCl diet (Example 1)", "type": "in vivo, rat", "excerpt": "Detection of miRNAs in plasma during various disease settings is showing increasing diagnostic promise (Cortez M A and Calin G A (2009) Expert Opin Biol Ther. 9, 703-711). To determine whether there is a specific miRNA that correlates with antimiR-208a efficacy, we examined a panel of muscle related miRNAs during HS treatment.\nRNA from plasma samples was isolated using Trizol LS Reagent (Invitrogen), using the manufacturer's protocol. Prior to RNA isolation, […] of two different synthetic C. elegans miRNA sequences were added to serve as internal controls for normalization of target miRNAs. The C. elegans sequences used were cel-miR-2 ([…], SEQ ID NO:5), and cel-lin-4 ([…]; SEQ ID NO:6) (Dharmacon). The final RNA pellet was re-suspended in a final volume equal to the initial plasma volume and 5 μl was used for subsequent RT-PCR reactions, as described above."}, "[2]": {"tested_on": "miR-208a, miR-499, miR-208b, Myh6, Myh7b, Myh7, Dynlt1, Vcpip, Tegt", "test": "Cardiac tissue real-time PCR, 6% NaCl diet (Example 3)", "type": "in vivo, rat", "protocol": "(§1) One week following the initiation of the 6.0% NaCl diet, rats were dosed subcutaneously (sc) with saline or oligonucleotides (M−10101, 5′-CTTTTTGCTCGTCTTA-3′ (SEQ ID NO: 12) or M-10591, 5′-TCCTAGAAAGAGTAGA-3′ (SEQ ID NO:13)) at 25 mg/kg every 2 weeks. Captopril or water were dosed daily by oral gavage. Echocardiography was performed every 2 weeks starting one week post […] dosing. The Captopril dose for rat was selected to match the standard human dose in man.\nFor in vivo real-time PCR analysis, RNA was extracted from cardiac tissue using Trizol (Invitrogen) after which two μg RNA from each tissue sample was used to generate cDNA using Super Script II reverse transcriptase per manufacturer's specifications (Invitrogen). To detect the level of miR-208 RT-PCR was performed using the Taqman MicroRNA assay (Applied Biosystems, ABI) according the manufacturer's recommendations, using 10-100 ng of total RNA. The expression of a subset of genes was analyzed by quantitative real time PCR using Taqman probes purchased from AB."}, "Dahl salt-sensitive rats": {"tested_on": "Dahl salt-sensitive rats", "test": "Dahl salt-sensitive rat model, 6% NaCl diet: body weight and survival (Example 3)", "type": "in vivo"}, "miR-208a, Myh6, Myh7": {"tested_on": "miR-208a, Myh6, Myh7", "test": "Cardiac tissue markers by Taqman RT-PCR, 4% NaCl diet (Example 2)", "type": "in vivo, rat", "conditions": "25 mg/kg sc every 2 weeks", "protocol": "The flowing experimental groups were tested:\nFollowing catheter implant surgery, high-salt diet was initiated. […] Animals were sacrificed 8 weeks after the initial injection.\nTissue RNA was isolated using standard Trizol RNA isolation."}, "plasma miRNAs [3]": {"tested_on": "plasma miRNAs", "test": "Real-time PCR of plasma miRNAs, 6% NaCl diet (Example 3)", "type": "in vivo, rat", "protocol": "as §1\nQuantitative real-time PCR analysis from plasma. RNA from plasma samples was isolated using Trizol LS Reagent (Invitrogen), using the manufacturer's protocol. Prior to RNA isolation, […] of two different synthetic C. elegans miRNA sequences were added to serve as internal controls for normalization of target miRNAs. The C. elegans sequences used were cel-miR-2 ([…], SEQ ID NO:5), and cel-lin-4 ([…]; SEQ ID NO:6) (Dharmacon). The final RNA pellet was re-suspended in a final volume equal to the initial plasma volume and 5 μl was used for subsequent RT-PCR reactions, as described above."}, "[4]": {"conditions": "M-10101 25 mg/kg sc, Captopril po daily"}, "[5]": {"conditions": "listed as antimiR-208a, 25 mg/kg"}},
  "note": "“Also recorded” adds a separate entry of the source.",
  "data": [
    {"substance": "M-10101: antimiR targeting bases 2 to 17 of mature miR-208a, LNA and DNA linked by phosphorothioate bonds; 5′-CTTTTTGCTCGTCTTA-3′ (SEQ ID NO: 12) (all phosphorothioate, sugars by position and methylation of C not given here; LNA/DNA mixmer; listed as Homo sapiens)", "values": [
      {"measurement": "Plasma miR-499", "setting": "plasma miRNAs [1]; 8 weeks after start of 4% HS diet, 7 weeks after onset of antimiR treatment, listed as antimiR-208a", "result": "significantly reduced; also recorded: significantly lowers"},
      {"measurement": "Plasma miR-423-5p", "setting": "plasma miRNAs [1]; 8 weeks after start of 4% HS diet, listed as antimiR-208a", "result": "reduced; also recorded: decrease"},
      {"measurement": "Plasma miR-1", "setting": "plasma miRNAs [1]; Dahl hypertensive rats", "result": "no response"},
      {"measurement": "Plasma miR-208a", "setting": "plasma miRNAs [1]; Dahl hypertensive rats", "result": "no response"},
      {"measurement": "Expression of direct target genes of miR-208a (Dynlt1, Vcpip, Tegt) in cardiac tissue", "setting": "[2]; 25 mg/kg sc", "result": "increase in expression"},
      {"measurement": "miR-208a cardiac level", "setting": "[2]; 25 mg/kg sc every 2 weeks", "result": "further reduced"},
      {"measurement": "miR-208b cardiac level", "setting": "[2]; 25 mg/kg sc every 2 weeks", "result": "reduction of cardiac levels"},
      {"measurement": "miR-499 cardiac level", "setting": "[2]; 25 mg/kg sc every 2 weeks", "result": "reduction of cardiac levels"},
      {"measurement": "Myh7b levels in the heart", "setting": "[2]; [4]", "result": "specifically reduced"},
      {"measurement": "αMHC (Myh6) in the heart (reduced by HS diet)", "setting": "[2]; [4]", "result": "normalized"},
      {"measurement": "βMHC (Myh7) expression (increase induced by HS diet)", "setting": "[2]; M-10101 25 mg/kg sc, Captopril po daily, listed as antimiR-208a", "result": "more effective; also recorded: not significantly different from animals on the LS diet"},
      {"measurement": "Survival (Kaplan-Meier)", "setting": "Dahl salt-sensitive rats; M-10101 25 mg/kg sc every 2 weeks, water po, 25 mg/kg", "result": "significantly improved survival; also recorded: No mortality was observed"},
      {"measurement": "Body weight", "setting": "Dahl salt-sensitive rats; oligonucleotide 25 mg/kg sc every 2 weeks", "result": "partially prevented the body weight loss"},
      {"measurement": "Myh7 expression in cardiac tissue", "setting": "miR-208a, Myh6, Myh7; listed as AntimiR-208a, 25 mg/kg", "result": "blunted the hypertension-induced increase in Myh7 expression"},
      {"measurement": "Myh6 expression in cardiac tissue", "setting": "miR-208a, Myh6, Myh7; [5]", "result": "prevented the high-salt diet-induced decrease in Myh6 expression; also recorded: prevents this decrease"},
      {"measurement": "Myh7 expression in cardiac tissue", "setting": "miR-208a, Myh6, Myh7; [5]", "result": "reduces this increase"},
      {"measurement": "miR-208a in cardiac tissue", "setting": "miR-208a, Myh6, Myh7; vs HS/Saline", "result": "greater inhibition of miR-208a"},
      {"measurement": "Plasma miR-19b", "setting": "plasma miRNAs [3]", "result": "significantly increased"},
      {"measurement": "Plasma miR-223", "setting": "plasma miRNAs [3]", "result": "more significant decrease"},
      {"measurement": "Plasma miR-423-5p, miR-106b, miR-16, miR-92a, miR-378, miR-210, miR-378*, miR-20b and miR-93", "setting": "plasma miRNAs [3]", "result": "decreased"}
    ]}
  ]
}
